Laboratory results as given in patent US5298508A, “Irreversible inhibitors of adenosine receptors” (priority 1992, dated 1994).
Where two headings read alike, the source gives them in different places. One block for each molecule: values may come before it.

How the values were obtained:
central A1 receptors [1] = molecular target: T1, central A1 receptors (Rattus norvegicus, UniProt P25099); assay type: binding
T1 construct: A1 -adenosine receptors in rat brain membranes; from tissue; host or cells: rat brain membranes
T1 sequence (P25099 1-326): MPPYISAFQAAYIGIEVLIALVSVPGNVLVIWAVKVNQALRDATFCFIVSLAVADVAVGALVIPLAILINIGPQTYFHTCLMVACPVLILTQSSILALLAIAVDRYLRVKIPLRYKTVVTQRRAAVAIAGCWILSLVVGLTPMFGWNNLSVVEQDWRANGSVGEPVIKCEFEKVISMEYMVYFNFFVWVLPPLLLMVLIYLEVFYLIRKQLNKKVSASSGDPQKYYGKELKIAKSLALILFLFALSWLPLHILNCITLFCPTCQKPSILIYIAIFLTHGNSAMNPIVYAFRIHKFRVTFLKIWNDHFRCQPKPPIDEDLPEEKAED

central A1 receptors [2] = molecular target: T2, central A1 receptors (Bos taurus, UniProt P28190); test: inhibition of radioligand binding at central A1 receptors, calf brain membranes
T2 construct: A1 -adenosine receptors in membranes form calf brain; from tissue; host or cells: calf brain membranes
T2 sequence (P28190 1-326): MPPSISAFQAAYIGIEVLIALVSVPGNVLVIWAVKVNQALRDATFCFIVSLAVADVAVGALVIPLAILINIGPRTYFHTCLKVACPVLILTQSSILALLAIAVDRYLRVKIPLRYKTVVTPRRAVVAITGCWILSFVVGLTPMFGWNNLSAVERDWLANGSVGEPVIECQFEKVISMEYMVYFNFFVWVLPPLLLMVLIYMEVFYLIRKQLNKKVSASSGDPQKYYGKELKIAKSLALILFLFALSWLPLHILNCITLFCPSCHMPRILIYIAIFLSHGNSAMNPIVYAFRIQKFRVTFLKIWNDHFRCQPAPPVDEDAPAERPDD
Description: ^b against [^125 I]APNEA (i.e. N^6
^b against [^125 I]APNEA;
The compounds, at concentrations relative to the Ki -values obtained, were screened for the ability to inhibit competitive binding of the radioligands [^3 H]PIA to rat brain membranes and [^3 H]XAC to bovine brain membranes, a shown in Table 1.

A1 adenosine receptors = molecular target: T3, A1 adenosine receptors (Rattus norvegicus, UniProt P25099); test: inhibition of binding of [3H]N6-phenylisopropyladenosine ([3H]PIA) to A1 adenosine receptors in rat cerebral cortex membranes
T3 construct: A1 adenosine receptors in rat cerebral cortex membranes; from tissue; host or cells: rat cerebral cortex membranes
T3 sequence (P25099 1-326): T1 sequence (P25099 1-326)
Procedure: Ukena et al., FEBS Letters 209;122, 1986.
For the biochemical assays, stock solutions of xanthines in the millimolar concentration range in dimethylsulfoxide were prepared and stored frozen. The solutions were warmed to 50° C. prior to dilution in aqueous medium. […] Acad. Sci. USA, 83:4089, 1986. Inhibition of binding by a range of concentrations of a xanthine or adenosine derivative was assessed in triplicate in at least three separate experiments.

[3] = Table I, rat, against [3H]PIA, read-out: Ki at central A1 receptors, rat
[4] = read-out: Ki at central A1 receptors, rat

Structure (SMILES): O=C(Cc1ccc(NC(=O)Cc2ccc(Nc3ncnc4c3ncn4[C@@H]3O[C@H](CO)[C@@H](O)[C@H]3O)cc2)cc1)NCCNC(=S)Nc1cccc(N=C=S)c1 [Compound 28]
- inhibition at 0.05 µM (central A1 receptors [1]; read-out: % inhib (conc)): > 80%
- irreversible inhibition of central A1-adenosine receptors (central A1 receptors [1]; result in words): behave pharmacologically as irreversible inhibitors of central A1 -adenosine receptors
- Ki (central A1 receptors [2]): 0.1 nM
- Ki (A1 adenosine receptors): 0.86 nM

Structure (SMILES): CCCn1c(=O)c2[nH]c(-c3ccc(OCC(=O)NCCNC(=O)CCCCCCC(=O)ON4C(=O)CCC4=O)cc3)nc2n(CCC)c1=O [Compound 21]
- inhibition at 0.5 µM (central A1 receptors [1]; read-out: % inhib (conc)): 40%
- irreversible inhibition of central A1-adenosine receptors (central A1 receptors [1]; result in words): inhibits binding irreversibly
- Ki (central A1 receptors [2]; Table I, calf, against [125I]APNEA, read-out: Ki at central A1 receptors, calf): 15.8 nM
- Ki (A1 adenosine receptors; [3]): 3.69 ± 0.71 nM

Structure (SMILES): CCCn1c(=O)c2[nH]c(-c3ccc(OCC(=O)NCCNC(=O)CBr)cc3)nc2n(CCC)c1=O [Compound 18, 8-[2-[4-bromoacetylaminoethyl[amino[carbonyl[methyloxyphenyl]]]]]-1,3-dipropylxanthine]
- Ki (A1 adenosine receptors; [3]): 17.6 ± 1.5 nM

Structure (SMILES): CCCn1c(=O)c2[nH]c(-c3ccc(OCC(=O)NCCNC(=O)Cc4ccc(NC(=O)OC(C)(C)C)cc4)cc3)nc2n(CCC)c1=O [Compound 15c]
- Ki (A1 adenosine receptors; [3]): 53 ± 12 nM

Structure (SMILES): NCCNC(=O)Cc1ccc(NC(=O)Cc2ccc(Nc3ncnc4c3ncn4[C@@H]3O[C@H](CO)[C@@H](O)[C@H]3O)cc2)cc1 [Compound 26a, reference compound]
- Ki (central A1 receptors [2]): 0.2 nM

Structure (SMILES): CCCn1c(=O)c2[nH]c(-c3ccc(OCC(=O)NCCNS(=O)(=O)c4cccc(S(=O)(=O)Cl)c4)cc3)nc2n(CCC)c1=O [Compound 13]
- inhibition at 0.1 µM (central A1 receptors [1]; read-out: % inhib (conc)): 20%
- Ki (A1 adenosine receptors; [3]): 2.5 ± 0.47 nM

Structure (SMILES): CCCn1c(=O)c2[nH]c(-c3ccc(OCC(=O)NCCNC(=S)Nc4ccc(C)cc4)cc3)nc2n(CCC)c1=O [Compound 6]
- Ki (A1 adenosine receptors; [3]): 16 ± 2.9 nM

Structure (SMILES): CCCn1c(=O)c2[nH]c(-c3ccc(OCC(=O)NCCNC(=O)CCCCC(C)=O)cc3)nc2n(CCC)c1=O [Compound 17]
- inhibition at 0.5 µM (central A1 receptors [1]; read-out: % inhib (conc)): 0%
- Ki (central A1 receptors [2]; read-out: Ki at central A1 receptors, calf): 3.2 nM
- Ki (A1 adenosine receptors; [3]): 44 ± 9 nM

Structure (SMILES): CCCn1c(=O)c2[nH]c(-c3ccc(OCC(=O)NCCNC(=S)Nc4cccc(N=C=S)c4)cc3)nc2n(CCC)c1=O [Compound 5b]
- inhibition at 0.005 µM (central A1 receptors [1]; read-out: % inhib (conc)): 49%
- potency of irreversible inhibition, meta versus para phenylisothiocyanate (central A1 receptors [1]; xanthine series, result in words): meta-position favored (5b) over the para-position (4b)
- Ki (central A1 receptors [2]): 0.5 nM
- relative potency in the binding assay, 5b versus 4b (A1 adenosine receptors; meta versus para isomer): more than twice as potent in the binding assay than 4b

Structure (SMILES): CCCn1c(=O)c2[nH]c(-c3ccc(OCC(=O)ON4C(=O)CCC4=O)cc3)nc2n(CCC)c1=O [Compound 1]
- inhibition at 0.5 µM (central A1 receptors [1]; read-out: % inhib (conc)): 0%
- irreversible inhibition of central A1-adenosine receptors (central A1 receptors [1]; result in words): only the longest of the series, SUS-XAC, 21, inhibits binding irreversibly
- Ki (A1 adenosine receptors; [3]): 9 ± 0.7 nM

Structure (SMILES): CCCn1c(=O)c2nc(-c3ccc(OCC(=O)NCCN=C(S)Nc4ccc([N+](=O)[O-])cc4)cc3)[nH]c2n(CCC)c1=O [Compound 11]
- Ki (A1 adenosine receptors; [4]): 5 nM

Structure (SMILES): CCCn1c(=O)c2[nH]c(-c3ccc(OCC(=O)NCCNC(=O)CCC(=O)ON4C(=O)CCC4=O)cc3)nc2n(CCC)c1=O [Compound 20b]
- inhibition at 0.5 µM (central A1 receptors [1]; read-out: % inhib (conc)): 0%
- irreversible inhibition of central A1-adenosine receptors (central A1 receptors [1]; result in words): only the longest of the series, SUS-XAC, 21, inhibits binding irreversibly
- Ki (A1 adenosine receptors; [3]): 20 ± 4.5 nM

The remaining lines, values ahead:

- Ki (A1 adenosine receptors; [4]): 5 nM
Structure (SMILES): COc1ccc(NC(=S)NCCNC(=O)Cc2ccc(NC(=O)Cc3ccc(Nc4ncnc5c4ncn5[C@@H]4O[C@H](CO)[C@@H](O)[C@H]4O)cc3)cc2)cc1 [Compound 30]

- Ki (A1 adenosine receptors; [4]): 1.19 ± 0.14 nM
Structure (SMILES): O=C(Cc1ccc(NC(=O)Cc2ccc(Nc3ncnc4c3ncn4[C@@H]3O[C@H](CO)[C@@H](O)[C@H]3O)cc2)cc1)NCCNC(=S)Nc1ccc(Br)cc1 [Compound 33]

- Ki (A1 adenosine receptors; [4]): 10.7 nM
Structure (SMILES): O=C(Cc1ccc(NC(=O)Cc2ccc(Nc3ncnc4c3ncn4[C@@H]3O[C@H](CO)[C@@H](O)[C@H]3O)cc2)cc1)NCCNC(=S)Nc1ccccc1F [Compound 31b]

- Ki (A1 adenosine receptors; [4]): 3.72 ± 0.44 nM
Structure (SMILES): Cc1ccc(NC(=S)NCCNC(=O)Cc2ccc(NC(=O)Cc3ccc(Nc4ncnc5c4ncn5[C@@H]4O[C@H](CO)[C@@H](O)[C@H]4O)cc3)cc2)cc1 [Compound 29]

- Ki (A1 adenosine receptors; Table II, rat, against [3H]PIA, read-out: Ki at central A1 receptors, rat): 8.37 ± 0.73 nM
Structure (SMILES): O=C(Cc1ccc(Nc2ncnc3c2ncn3[C@@H]2O[C@H](CO)[C@@H](O)[C@H]2O)cc1)ON1C(=O)CCC1=O [Compound 24]

- Ki (A1 adenosine receptors; [4]): 9.6 ± 1.44 nM
Structure (SMILES): O=C(Cc1ccc(Nc2ncnc3c2ncn3[C@@H]2O[C@H](CO)[C@@H](O)[C@H]2O)cc1)Nc1ccc(CC(=O)ON2C(=O)CCC2=O)cc1 [Compound 25]

- Ki (A1 adenosine receptors; [4]): 5 nM
Structure (SMILES): O=C(CBr)NCCNC(=O)Cc1ccc(NC(=O)Cc2ccc(Nc3ncnc4c3ncn4[C@@H]3O[C@H](CO)[C@@H](O)[C@H]3O)cc2)cc1 [Compound 36]
